# Measurements published in patent publication US20090130229A1, “Antitumor uses of compound” (Cell Therapeutics, Inc., priority 2002, published 2009).
# Experiments:
# c-Kit = biological target: T1, c-Kit (Homo sapiens, UniProt P10721); test: c-Kit autophosphorylation and expression in SCLC cell line N592; format: cell-based; conditions: N592 cells, 24 h
# T1 construct: endogenous in cells; host or cells: N592 (human small cell lung carcinoma)
# Description: FIG. 7. Effects of Cpd1 on cell lines expressing constitutively activated forms of Kit. […] Cells were treated with 20 μM Cpd1 and photographed 24 h later under a phase-contrast microscope (original magnification X 100). B): Inhibition of Kit (Δ559) autophosphorylation and expression in NIH3T3 transfectants. Cells were treated with Cpd 1 at the indicated concentrations, for 72 h. Cell lysates were immunoprecipitated with anti-Kit antibody and subjected to Western blotting with anti-p-Tyr or anti-Kit antibodies. C): Inhibition of expression and autocrine loop-activated autophosphorylation of c-Kit in the SCLC cell line N592. Cells were treated with Cpd 1 at the indicated concentrations, for 24 h. Whole cell lysates were subjected to Western blotting with anti-Kit antibody or with an antibody specifically recognizing the tyrosine phosphorylated/activated Kit (p-Kit). […]
# (§1) For whole-cell extract preparation, cells were lysed in sodium dodecyl sulfate (SDS) sample buffer (62.5 mM Tris-HCl (pH 6.8), 2% SDS) with 1 mM PMSF, 10 μg/ml pepstatin, 12.5 μg/ml leupeptin, 100 KIU aprotinin, 1 mM sodium orthovanadate, 1 mM sodium molybdate. Protein concentration was determined in appropriately diluted aliquots by the bicinchionic acid (BCA) method (Pierce, Rockford, Ill.), then samples were adjusted to a final concentration of 10% glycerol, 5% β-mercaptoethanol, 0.001% bromophenol blue. […]
# [1] = system: NIH3T3 cells transformed with the RET/PTC1 oncogene; conditions: cited from earlier work
# Ret/MEN2A(C634R) = biological target: T2, Ret/MEN2A(C634R) (Homo sapiens, UniProt P07949, C634R); test: Ret/MEN2A(C634R) autophosphorylation and expression in NIH3T3 transfectants (Western blotting); format: cell-based; conditions: 10 μM
# T2 construct: expressed in transfected cells; host or cells: NIH3T3 (mouse fibroblasts)
# T2 sequence (P07949 29-1072 isoform P07949-2 C634R limits assumed): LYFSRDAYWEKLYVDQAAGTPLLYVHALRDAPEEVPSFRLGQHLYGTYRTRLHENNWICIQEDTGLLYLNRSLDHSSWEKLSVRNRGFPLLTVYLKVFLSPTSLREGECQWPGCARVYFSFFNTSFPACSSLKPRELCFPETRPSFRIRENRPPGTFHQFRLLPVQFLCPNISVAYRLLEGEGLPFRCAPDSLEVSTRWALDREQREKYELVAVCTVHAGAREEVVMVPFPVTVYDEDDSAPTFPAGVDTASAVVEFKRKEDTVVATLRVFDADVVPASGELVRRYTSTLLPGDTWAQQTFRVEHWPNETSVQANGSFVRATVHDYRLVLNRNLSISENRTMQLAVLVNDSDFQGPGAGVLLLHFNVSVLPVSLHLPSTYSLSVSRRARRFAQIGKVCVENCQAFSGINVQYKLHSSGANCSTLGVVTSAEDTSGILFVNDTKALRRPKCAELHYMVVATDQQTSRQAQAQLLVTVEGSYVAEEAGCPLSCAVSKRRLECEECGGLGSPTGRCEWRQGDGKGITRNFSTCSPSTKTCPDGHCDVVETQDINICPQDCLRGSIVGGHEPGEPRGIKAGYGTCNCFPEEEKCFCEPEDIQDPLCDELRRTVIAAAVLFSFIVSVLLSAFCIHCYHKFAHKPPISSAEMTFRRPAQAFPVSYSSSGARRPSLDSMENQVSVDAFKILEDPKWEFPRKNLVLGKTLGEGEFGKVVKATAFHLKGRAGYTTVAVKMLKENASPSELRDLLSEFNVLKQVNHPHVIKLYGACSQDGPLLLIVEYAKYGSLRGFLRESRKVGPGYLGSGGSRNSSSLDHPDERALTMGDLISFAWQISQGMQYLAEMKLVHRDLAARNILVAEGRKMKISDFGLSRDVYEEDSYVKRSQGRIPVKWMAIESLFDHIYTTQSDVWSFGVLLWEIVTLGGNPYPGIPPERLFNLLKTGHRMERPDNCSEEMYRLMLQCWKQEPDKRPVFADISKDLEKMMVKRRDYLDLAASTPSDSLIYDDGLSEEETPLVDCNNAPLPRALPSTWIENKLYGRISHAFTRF
# Description: FIG. 1. Effects of Cpd 1 on NIH3T3^MEN2A(C634R) transfectants expressing exogenous RET/MEN2A(C634R). […] Cells were exposed to 6 μM Cpd1 for 24 h and then photographed under a phase-contrast microscope (original magnification ×100). B) Antiproliferative effect. NIH3T3^MEN2A(C634R) cells and the parental NIH3T3 cells were treated with increasing concentrations of the drug for 72 h and then counted with a Coulter Counter. […] C) Inhibition of Ret/MEN2A(C634R) autophosphorylation and expression. Cells were treated with solvent (−) or 10 μM Cpd1 (+), for the indicated times. Whole cell-lysates were prepared and subjected to SDS-PAGE and Western blotting with anti-pTyr antibody. After stripping, the filter was reblotted with anti-Ret antibody. Arrows indicate the partial and fully glycosilated forms of the Ret/MEN2A receptor.
# The following human medullary thyroid carcinoma (MTC) cell lines were used in this study. The TT cell line derived from a MEN2A-associated MTC characterized by expression of the RET oncogene carrying the mutation C634W. The MZ-CRC-1 cell line derived from MEN2B-associated MTC characterized by expression of the RET oncogene carrying the mutation M918T. TT cells were cultivated in Ham's F12 medium (BioWhittaker, Verviers, Belgium) supplemented with 15% fetal calf serum (FCS) (Life Technologies, Inc., Gaithersburg, Md.) whereas MZ-CRC-1 cells were grown in Dulbecco's modified Eagle's medium (DMEM) (BioWhittaker) supplemented with 10% FCS. […]
# as §1
# NIH3T3^KITΔ559 cells = test: Reversion of transformed morphologic phenotype of NIH3T3 transfectants expressing KIT (Δ559); format: cell-based, mouse; conditions: 20 μM, 24 h, phase-contrast microscope
# Description: FIG. 7. Effects of Cpd1 on cell lines expressing constitutively activated forms of Kit. […] Cells were treated with 20 μM Cpd1 and photographed 24 h later under a phase-contrast microscope (original magnification X 100). B): Inhibition of Kit (Δ559) autophosphorylation and expression in NIH3T3 transfectants. Cells were treated with Cpd 1 at the indicated concentrations, for 72 h. Cell lysates were immunoprecipitated with anti-Kit antibody and subjected to Western blotting with anti-p-Tyr or anti-Kit antibodies. C): Inhibition of expression and autocrine loop-activated autophosphorylation of c-Kit in the SCLC cell line N592. Cells were treated with Cpd 1 at the indicated concentrations, for 24 h. Whole cell lysates were subjected to Western blotting with anti-Kit antibody or with an antibody specifically recognizing the tyrosine phosphorylated/activated Kit (p-Kit).
# The following human medullary thyroid carcinoma (MTC) cell lines were used in this study. The TT cell line derived from a MEN2A-associated MTC characterized by expression of the RET oncogene carrying the mutation C634W. The MZ-CRC-1 cell line derived from MEN2B-associated MTC characterized by expression of the RET oncogene carrying the mutation M918T. […]
# Ret/MEN2B(M918T) = biological target: T3, Ret/MEN2B(M918T) (Homo sapiens, UniProt P07949, M918T); test: Ret autophosphorylation and expression in MZ-CRC-1 cells (Western blotting); format: cell-based; conditions: 24 h
# T3 construct: endogenous in cells; host or cells: MZ-CRC-1 (human medullary thyroid carcinoma)
# T3 sequence (P07949 29-1114 M918T): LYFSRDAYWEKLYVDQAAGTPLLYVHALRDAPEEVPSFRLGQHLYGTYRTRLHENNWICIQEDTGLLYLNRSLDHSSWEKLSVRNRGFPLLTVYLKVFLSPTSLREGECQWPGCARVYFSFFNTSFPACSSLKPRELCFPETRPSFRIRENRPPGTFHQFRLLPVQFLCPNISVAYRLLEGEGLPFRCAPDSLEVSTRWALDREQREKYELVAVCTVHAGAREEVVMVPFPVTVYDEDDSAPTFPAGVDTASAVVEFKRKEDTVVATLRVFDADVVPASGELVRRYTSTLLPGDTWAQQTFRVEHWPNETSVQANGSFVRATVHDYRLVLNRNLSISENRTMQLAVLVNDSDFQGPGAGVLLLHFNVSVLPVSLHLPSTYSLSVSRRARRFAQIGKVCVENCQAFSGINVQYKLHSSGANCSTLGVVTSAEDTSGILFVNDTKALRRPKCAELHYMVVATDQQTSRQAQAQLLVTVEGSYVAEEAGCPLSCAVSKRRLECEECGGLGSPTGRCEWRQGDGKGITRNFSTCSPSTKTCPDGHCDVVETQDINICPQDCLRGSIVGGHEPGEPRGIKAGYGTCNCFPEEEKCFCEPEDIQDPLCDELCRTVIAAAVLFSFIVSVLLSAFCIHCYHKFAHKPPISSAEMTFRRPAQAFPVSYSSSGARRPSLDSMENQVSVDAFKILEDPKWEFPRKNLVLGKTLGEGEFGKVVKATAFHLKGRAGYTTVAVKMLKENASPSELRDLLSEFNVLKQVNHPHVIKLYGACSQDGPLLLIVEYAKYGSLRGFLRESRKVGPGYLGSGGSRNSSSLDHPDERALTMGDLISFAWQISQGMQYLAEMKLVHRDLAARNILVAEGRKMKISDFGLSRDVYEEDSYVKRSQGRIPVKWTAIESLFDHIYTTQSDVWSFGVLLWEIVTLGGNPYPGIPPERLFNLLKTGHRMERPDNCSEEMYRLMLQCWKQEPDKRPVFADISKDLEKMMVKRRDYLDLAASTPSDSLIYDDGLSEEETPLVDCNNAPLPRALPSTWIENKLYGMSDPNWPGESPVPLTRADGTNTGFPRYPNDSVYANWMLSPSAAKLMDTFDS
# Description: FIG. 2. Effects of Cpd1 on human MTC cell lines harboring MEN2-associated RET mutants. A) Inhibition of Ret autophosphorylation. TT and MZ-CRC-1 cells, expressing respectively RET/MEN2A(C634W) and RET/MEN2B(M918T), were treated with the indicated concentrations of Cpd1, for 24 h. Control cells (C) received the solvent. Whole cell extracts were processed for Western blotting and probed with anti-pTyr and anti-Ret antibodies. […] B) Antiproliferative effect. TT and MZ-CRC-1 cells were treated with increasing concentrations of Cpd 1 for 7 days and then counted with a Coulter Counter.
# The following human medullary thyroid carcinoma (MTC) cell lines were used in this study. The TT cell line derived from a MEN2A-associated MTC characterized by expression of the RET oncogene carrying the mutation C634W. […]
# as §1
# T1 sequence (P10721 26-976): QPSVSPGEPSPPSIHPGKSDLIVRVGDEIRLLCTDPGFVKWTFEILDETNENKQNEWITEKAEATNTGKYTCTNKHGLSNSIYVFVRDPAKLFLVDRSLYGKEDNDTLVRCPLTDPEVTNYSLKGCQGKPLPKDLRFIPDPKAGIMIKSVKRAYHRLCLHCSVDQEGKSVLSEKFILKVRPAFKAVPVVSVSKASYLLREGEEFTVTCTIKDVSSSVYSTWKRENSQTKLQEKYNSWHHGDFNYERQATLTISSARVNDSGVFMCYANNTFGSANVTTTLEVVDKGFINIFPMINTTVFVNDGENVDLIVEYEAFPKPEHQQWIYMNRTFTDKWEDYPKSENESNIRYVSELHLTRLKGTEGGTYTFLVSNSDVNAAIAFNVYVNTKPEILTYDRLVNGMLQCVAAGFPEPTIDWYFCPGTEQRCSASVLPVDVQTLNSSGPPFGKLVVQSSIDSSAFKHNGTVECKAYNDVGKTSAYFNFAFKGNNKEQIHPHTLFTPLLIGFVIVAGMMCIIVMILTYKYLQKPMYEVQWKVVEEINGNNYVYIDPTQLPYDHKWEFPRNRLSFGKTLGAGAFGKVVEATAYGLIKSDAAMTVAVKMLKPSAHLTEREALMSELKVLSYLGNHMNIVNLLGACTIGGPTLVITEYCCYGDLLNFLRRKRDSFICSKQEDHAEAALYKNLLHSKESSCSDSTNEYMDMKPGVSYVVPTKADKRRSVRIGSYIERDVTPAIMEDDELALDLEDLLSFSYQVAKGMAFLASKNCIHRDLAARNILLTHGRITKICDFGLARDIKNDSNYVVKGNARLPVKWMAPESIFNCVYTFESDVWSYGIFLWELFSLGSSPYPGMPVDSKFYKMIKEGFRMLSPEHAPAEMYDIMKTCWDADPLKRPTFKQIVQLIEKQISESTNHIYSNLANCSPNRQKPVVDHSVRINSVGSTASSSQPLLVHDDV
smiles,measurement,setting,value
"COc1cc2c(cc1OC)/C(=C\c1ccc(O)cc1)C(=O)N2 [Cpd 1, (E)-1,3-dihydro-5,6-dimethoxy-3-[(4-hydroxyphenyl)methylene]-2H-indol-2-one]",c-Kit autocrine loop-activated tyrosine phosphorylation (p-Kit),c-Kit,dose-dependent drug-induced inhibition
same,c-Kit expression,c-Kit,dose-dependent drug-induced inhibition
same,Reverting the morphologic phenotype,[1],particularly effective
same,Ret/MEN2A(C634R) tyrosine phosphorylation,Ret/MEN2A(C634R); 2 h of exposure,partially dephosphorylated
same,Ret/MEN2A(C634R) receptor expression,Ret/MEN2A(C634R); longer times than 2 h,reduced expression
same,Ret/MEN2A(C634R) tyrosine phosphorylation,Ret/MEN2A(C634R); longer times than 2 h,complete tyrosine dephosphorylation
same,Transformed morphologic phenotype,NIH3T3^KITΔ559 cells,Reversion of the transformed morphologic phenotype
same,Tyrosine phosphorylation of Ret receptor,Ret/MEN2B(M918T),dose-dependent inhibition
same,Ret receptor expression,Ret/MEN2B(M918T); highest concentrations,reduced expression
